In the Deep4Chem optical property database one finds emission maximum data, which are given here for 47 molecules.

The data set can be described thus: solvent given as SMILES.

Consider `N#Cc1ccc2cc[nH]c2c1`, for which the emission maximum by setting is: (in C1CCOC1) 345 nm; (in C1COCCO1) 342 nm; (in CC#N) 354 nm; (in CC(C)O) 356 nm; (in CCO) 358 nm; (in CO) 367 nm. The same molecule displayed an emission maximum (in CS(C)=O) of 363 nm, an emission maximum (in O) of 375 nm and an emission maximum (in OCC(F)(F)F) of 364 nm.
As to `O=C([O-])c1ccc(C(=O)[O-])c2cc3ccccc3cc12`, for the setting “in CN(C)C=O”, the emission maximum is 430 nm.
Under “in C1CCOC1”, `CC(C)(C)c1ccc(C2=C(c3ccc(C(C)(C)C)cc3)[Si](c3ccccc3)(c3ccccc3)c3ccccc32)cc1` returned an emission maximum of 447 nm.
Regarding `CC1=CC(C)=[N+]2C1=C(c1ccc(I)cc1)c1c(C)cc(C)n1[B-]2(Oc1ccc([N+](=O)[O-])cc1)Oc1ccc([N+](=O)[O-])cc1`, under “in ClC(Cl)Cl”, the emission maximum is 516.5 nm.
`CCCCCCOc1cc2cc(=O)oc3ccc4cccc1c4c23`: for the setting “in CC1CCCO1”, the emission maximum was 468 nm.
Under “in O”, `COc1cc2cc(-c3ccc(C(=O)OCOC(C)=O)cc3C(=O)OCOC(C)=O)oc2cc1N1CCOCCOCCN(c2cc3oc(-c4ccc(C(=O)OCOC(C)=O)cc4C(=O)OCOC(C)=O)cc3cc2OC)CCOCCOCC1` had an emission maximum of 546 nm.
`C(#Cc1ccc2ncsc2c1)c1ccc(N(c2ccccc2)c2ccccc2)cc1`: for the setting “in Cc1ccccc1”, the emission maximum is 428 nm.
For the molecule `COC(=O)CNC(=O)CCNc1cccc2ccccc12`, the emission maximum (in CCO) is 417 nm.
With `C(#Cc1ccccc1)C(C#Cc1ccccc1)=Cc1ccccc1`, the emission maximum (in ClC(Cl)Cl) was determined as 392 nm.
Consider `F[B-]1(F)n2c(Cl)c(Cl)c(Br)c2C(Cl)=C2C(Br)=C(Cl)C(Cl)=[N+]21`, for which the emission maximum (in ClCCl) is 560 nm.
For the setting “in C1CCOC1”, `N#Cc1c(N2CCCCC2)cc(-c2cccc3ccccc23)c2c1-c1ccccc1C2=O` had an emission maximum of 526 nm.
As for `CC/[NH+]=c1\cc2oc3cc(NCCOC(=O)C(NC(=O)OC(C)(C)C)C(C)C)c4ccccc4c3nc-2cc1C` (stereo not given), the emission maximum is, setting by setting: (in CCO) 652 nm; (in O) 652 nm.
Take `CC(=O)c1ccc(NC(=O)c2ccc(N(C)C)cc2)cc1`: the emission maximum is, setting by setting: (in C1CCCCC1) 345 nm; (in C1CCOC1) 468 nm; (in CC#N) 550 nm; (in CCOCC) 470 nm.
`CCCCCCCCc1ccc(-c2ccc(/C=C(\C#N)c3ccc(-c4cccc5cccc(-c6ccc(/C(C#N)=C/c7ccc(-c8ccc(CCCCCCCC)cc8)cc7)cc6)c45)cc3)cc2)cc1`: for the setting “in Cc1ccccc1”, the emission maximum is 491 nm.
`CCn1c2ccccc2c2cc(-c3cc(-c4ccc5c(c4)c4ccccc4n5CC)nc(C#N)n3)ccc21` came in with an emission maximum (in C1CCOC1) of 427 nm; an emission maximum (in CCOC(C)=O) of 422 nm; an emission maximum (in CN(C)C=O) of 455 nm; an emission maximum (in Cc1ccccc1) of 404 nm; an emission maximum (in ClCCl) of 435 nm.
Consider `O=P1(c2ccccc2)C(c2cc(C(F)(F)F)cc(C(F)(F)F)c2)=Cc2c3ccc4cccc5ccc(c6cc(-c7ccccc7)n1c26)c3c45` (stereo not given), for which the emission maximum is, setting by setting: (in C1CCCCC1) 501 nm; (in C1CCOC1) 521 nm; (in C1COCCO1) 514 nm; (in CC#N) 531 nm; (in CC(C)=O) 526 nm; (in CO) 524 nm. Besides, the emission maximum is, setting by setting: (in Cc1ccccc1) 514 nm; (in ClC(Cl)Cl) 514 nm; (in ClCCl) 521 nm.
Where the note is “in C1CCOC1”, `COc1ccc(-c2cc3oc(=O)cc(C)c3cc2-c2ccc(OC)c(OC)c2)cc1OC` returned an emission maximum of 457 nm.
Turning to `CC(C)(C)c1ccc2c(c1)c1cc(C(C)(C)C)ccc1n2-c1ccc(C(=C(C#N)C#N)c2ccc(-n3c4ccc(C(C)(C)C)cc4c4cc(C(C)(C)C)ccc43)cc2)cc1`, where the note is “in Cc1ccccc1”, the emission maximum stood at 566 nm.
The molecule `CCN1/C(=C\C2=C([O-])C(=C/C3=[N+](CC)c4ccccc4C3(C)C)/C2=O)C(C)(C)c2ccccc21` gave an emission maximum (in ClC(Cl)Cl) of 643 nm.
With `COc1ccc(-c2c(-c3ccc(OC)cc3)c3c4c(cccc4c2-c2ccccc2)C(=O)c2ccccc2-3)cc1`, the emission maximum is on record as 527 nm (in CC#N) and 579 nm (in CO).
Take `CCc1c(C)c2n(c1C)[B-](F)(F)[N+]1=C(c3ccc[nH]3)c3ccccc3C1=C2C`: the emission maximum is 627 nm (in C1CCOC1); 623 nm (in CC#N); 622 nm (in CCCCCC); 622 nm (in CO); 630 nm (in Cc1ccccc1); 629 nm (in ClCCl).
Turning to `N#Cc1ccc2c(c1)C1(c3cc(C#N)ccc3-2)c2ccccc2N(c2ccccc2)c2ccccc21`, the emission maximum (in Cc1ccccc1) came to 492.18 nm.
`c1ccc2c(c1)c1ccccc1n2-c1ccc(-c2ccc(-c3ccc(-n4c5ccccc5c5ccccc54)nc3-n3c4ccccc4c4ccccc43)nn2)c(-n2c3ccccc3c3ccccc32)n1` returned an emission maximum (in CC#N) of 474.18 nm, an emission maximum (in Cc1ccccc1) of 400 nm and an emission maximum (in ClCCl) of 419.62 nm.
For `CCCCCCCCCCC1(CCCCCCCCCC)c2cc(-c3nc4ccccc4s3)ccc2-c2ccc(N3C(=O)c4ccc5c6ccc7c8c(ccc(c9ccc(c4c59)C3=O)c86)C(=O)N(c3ccc4c(c3)C(CCCCCCCCCC)(CCCCCCCCCC)c3cc(-c5nc6ccccc6s5)ccc3-4)C7=O)cc21`, the emission maximum is recorded as 536 nm (in Cc1ccccc1) and 533 nm (in ClCCl).
Molecule `CCCC1(CCC)c2cc(-c3ccc(C(C)(C)CC)cc3)ccc2-c2ccc(-c3ccc(C(C)(C)CC)cc3)cc21` registered an emission maximum (in C1CCCCC1) of 368 nm.
As to `C(=C\c1cnccn1)/c1ccc(N(c2ccccc2)c2ccc(/C=C/c3cnccn3)cc2)cc1`, the emission maximum (in ClCCl) was found to be 569 nm.
Still for that read-out and setting: then `COc1cc2c(cc1OC)C1=C[C@H](c3ccccc3)C3(C(C#N)=C(C#N)N1CC2)c1cc(Cl)ccc1-c1ccc(Cl)cc13`, with 389 nm.
As for `Cc1cc(C)c(-c2nnc(-c3ccc(-n4c5ccccc5c5ccccc54)c(C)c3)o2)c(C)c1`, the emission maximum is, setting by setting: (in CCO) 440 nm; (in Cc1ccccc1) 377 nm.
For the molecule `N#Cc1cc(C#N)cc(-n2c3ccccc3c3cc(-c4ccc5c(c4)c4ccccc4n5-c4cc(C#N)cc(C#N)c4)ccc32)c1`, the emission maximum amounted to 470 nm (in Cc1ccccc1) and 470 nm (in O=P(c1ccccc1)(c1ccccc1)c1ccccc1Oc1ccccc1P(=O)(c1ccccc1)c1ccccc1).
Consider `O=C1NC(=O)c2ccc(N3CCOCC3)c3cccc1c23`, for which, for the setting “in ClC(Cl)Cl”, the emission maximum was 504 nm.
Turning to `CCCCN(CCCC)c1ccc(C#Cc2cc(C#Cc3ccc(C#N)cc3)c(C#Cc3ccc(N(CCCC)CCCC)cc3)cc2C#Cc2ccc(C#N)cc2)cc1`, the emission maximum (in ClCCl) was 563 nm and the emission maximum (in c1ccccc1) turned out to be 530 nm.
`Cc1cc(C)c2c(c1)c1cc(C)cc(C)c1n2-c1ccc2c(c1)Sc1cc3c(cc1B2c1c(C(C)C)cc(C(C)C)cc1C(C)C)B(c1c(C(C)C)cc(C(C)C)cc1C(C)C)c1ccccc1S3`: the emission maximum is, setting by setting: (in Cc1ccccc1) 465 nm; (in O=P(c1ccccc1)(c1ccccc1)c1ccc2oc3ccc(P(=O)(c4ccccc4)c4ccccc4)cc3c2c1) 483 nm.
With `CN(C)c1ccc2c(-c3ccc(N)cc3C(=O)[O-])c3ccc(=[N+](C)C)cc-3oc2c1`, the emission maximum is reported as 564 nm (in CCO) and 572 nm (in O).
Consider `CC1(C)c2cc(C#N)ccc2-c2ccc(N3c4ccccc4Oc4ccccc43)cc21`, for which the emission maximum runs as follows: (in C1CCCCC1) 433 nm; (in C1CCOC1) 550 nm; (in CC#N) 620 nm; (in Cc1ccccc1) 487 nm; (in ClC(Cl)Cl) 530 nm.
With `O=c1c2cc(F)c(N3CCOCC3)cc2oc2cc(N3CCOCC3)c(F)cc12`, the emission maximum (in CCO) was determined as 448 nm.
Where the note is “in CC#N”, `COc1ccc2cc(/C=C/c3ccccc3)c(=O)oc2c1` gave an emission maximum of 464 nm.
For the molecule `CCCCCCN1C(=O)c2cccc3cc(/N=C\c4ccc(N(c5ccccc5)c5ccccc5)cc4)cc(c23)C1=O`, under “in ClC(Cl)Cl”, the emission maximum is 565 nm.
As for `COc1cc(OC)cc(C2=[O+][B-](F)(F)OC(c3ccc4cc(OC)ccc4c3)=C2)c1`, the emission maximum is on record as 550.5 nm (in CC#N); 533.32 nm (in CC(C)=O); 430.95 nm (in CCCCCC); 475.78 nm (in Cc1ccccc1); 520 nm (in ClCCl).
Where the note is “in ClCCl”, `CCc1ccccc1-c1c2ccccc2c(C#Cc2ccccc2)c2cc3ccccc3cc12` registered an emission maximum of 537 nm.
Still for that read-out and setting: then `COc1ccc(/C=C/C2=CC(c3ccccc3)=[O+][B-](F)(F)O2)cc1`, with 506 nm.
Same read-out and setting: the value for `CCN(CC)c1ccc2c(-c3ccccc3C(=O)O)c3c([o+]c2c1)/C(=C/c1ccc(N2CCCC2)s1)CCC3` was 770 nm.
Consider `Cc1ccc(C2=C3C=C(I)C(I)=[N+]3[B-](F)(F)n3c2cc(I)c3I)cc1`, for which the emission maximum by setting is: (in C1CCCCC1) 593 nm; (in CC#N) 591 nm; (in CCO) 595 nm; (in CCOC(C)=O) 591.5 nm; (in CO) 593.5 nm; (in OCC(F)(F)F) 588 nm.
`CCCN1c2ccccc2Sc2cc(/C=C\c3cc(=O)oc4ccc(C)cc34)ccc21` showed an emission maximum (in ClC(Cl)Cl) of 637 nm.
Regarding `Clc1cccc(-c2nc3sc4ccccc4c3s2)c1`, the emission maximum (in CS(C)=O) was 420 nm.
In the case of `COc1ccc(/N=N/c2c(O)c3ccccc3n(C)c2=O)c(S(=O)(=O)O)c1`, the emission maximum is 527 nm (in C1CCOC1); 528 nm (in CC(C)=O); 525 nm (in CCOC(C)=O); 532 nm (in CO); 548 nm (in CS(C)=O); 519 nm (in Cc1ccccc1). Besides, the emission maximum is, setting by setting: (in ClCCl) 542 nm; (in O) 583 nm.
Molecule `COc1ccc(C2=[N+]3C(=Nc4c(-c5ccc6ccccc6c5)c(Br)c(-c5ccc(OC)cc5)n4[B-]3(F)F)C(c3ccc4ccccc4c3)=C2Br)cc1` showed an emission maximum (in ClCCl) of 734 nm.
Turning to `CCCCCCn1c2cc(C=O)sc2c2sc3c(sc4c5sc(C=O)cc5n(CCCCCC)c43)c21`, for the setting “in ClCCl”, the emission maximum was determined as 496 nm.
